Test results as given in ChEMBL document CHEMBL1145137, “Design, synthesis, and crystal structure of selective 2-pyridone tissue factor VIIa inhibitors” (J Med Chem, 2003).

Legend:
Coagulation factor X = Coagulation factor X (Homo sapiens, UniProt P00742); test: Inhibitory concentration against human Coagulation factor X
Prothrombin = Prothrombin (Homo sapiens, UniProt P00734); test: Inhibitory concentration against human thrombin
Coagulation factor VII = target: T1, Coagulation factor VII (Homo sapiens, UniProt P08709); test: Inhibitory concentration against recombinant human coagulation factor VII
T1 sequence (P08709 whole entry): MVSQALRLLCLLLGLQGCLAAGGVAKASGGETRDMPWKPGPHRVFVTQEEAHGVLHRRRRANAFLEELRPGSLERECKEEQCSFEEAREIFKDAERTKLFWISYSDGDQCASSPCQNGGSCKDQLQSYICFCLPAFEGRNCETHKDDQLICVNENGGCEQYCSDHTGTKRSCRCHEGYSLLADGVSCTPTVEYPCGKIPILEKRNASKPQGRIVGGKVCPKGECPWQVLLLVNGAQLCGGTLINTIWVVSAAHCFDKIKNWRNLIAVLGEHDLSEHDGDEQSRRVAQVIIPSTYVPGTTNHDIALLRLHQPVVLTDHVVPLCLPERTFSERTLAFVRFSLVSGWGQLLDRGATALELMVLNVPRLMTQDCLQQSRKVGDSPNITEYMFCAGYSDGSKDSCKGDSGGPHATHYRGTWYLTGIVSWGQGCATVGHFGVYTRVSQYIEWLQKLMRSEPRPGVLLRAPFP

Chain of Coagulation factor X (P00742 41-179 limits assumed): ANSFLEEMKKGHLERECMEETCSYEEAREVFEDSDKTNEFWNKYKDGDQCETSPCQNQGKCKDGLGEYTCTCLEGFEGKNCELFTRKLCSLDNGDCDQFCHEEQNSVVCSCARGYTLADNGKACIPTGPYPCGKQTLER
Chain of Coagulation factor X (P00742 235-488 limits assumed): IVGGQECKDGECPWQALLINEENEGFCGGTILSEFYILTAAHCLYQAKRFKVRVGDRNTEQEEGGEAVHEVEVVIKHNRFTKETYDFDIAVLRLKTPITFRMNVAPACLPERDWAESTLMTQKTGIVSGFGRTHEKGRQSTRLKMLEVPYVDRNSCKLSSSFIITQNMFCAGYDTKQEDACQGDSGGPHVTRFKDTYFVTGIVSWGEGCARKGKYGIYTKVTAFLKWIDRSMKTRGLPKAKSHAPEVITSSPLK

IC50 (Coagulation factor X) [nM]	IC50 (Prothrombin) [nM]	IC50 (Coagulation factor VII) [nM]	Structure (SMILES)
> 30000	> 30000	118	CC(C)Nc1ccc(-c2cc(N)cc(C(=O)O)c2)n(CC(=O)NCc2ccc(C(=N)N)cc2)c1=O
		52	CC(C)Nc1ccc(-c2cc(N)cc(N)c2)n(CC(=O)NCc2ccc(C(=N)N)cc2)c1=O
